Our source for the inhibition values is PMC9217908, “Screening of commonly prescribed drugs for effects on the CAT1-mediated transport of L-arginine and arginine derivatives” (Amino Acids, 2022).

Like-named read-outs stand apart in the source and are kept apart here.

A word on the inhibition: it is the change of the read-out against control, counted positive when it falls.

What all share (assay): cell-based
Assay [1] deals with T1, CAT1 (cationic amino acid transporter 1, CAT1/SLC7A1) (Homo sapiens, UniProt P30825).
T1 construct: full-length human transporter stably transfected in HEK cells (HEK-CAT1); net uptake against HEK-VC vector control cells
Also on record: species or system HEK-CAT1 (HEK293 stably transfected); Inhibition of net CAT1-mediated [3H]-ADMA (1 uM) uptake, 2.5 min, scintillation counting, vector control subtracted. The following applies: HEK293, ADMA 1 uM as substrate; for inhibition at 20 µM: read-out: % Inhibition of ADMA uptake at 20 µM; for inhibition at 200 µM: read-out: % Inhibition of ADMA uptake at 200 µM. The method in brief: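 HEK cells expressing CAT1 and vector-control cells took up [^3H]-L-arginine for 5 min, or [^3H]-L-homoarginine or [^3H]-ADMA (1 μM) for 2.5 min, with or without drug at 20 or 200 µM. Net CAT1 uptake was CAT1 cells minus control cells, and inhibition (%) = 100 − V/V0×100. Negative values mean stimulation; n = 6–9.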

Assay [2] concerns the target T1, CAT1 (cationic amino acid transporter 1, CAT1/SLC7A1). Also on record: species or system HEK-CAT1 (HEK293 stably transfected); Inhibition of net CAT1-mediated [3H]-L-arginine (100 uM) uptake, 5 min, scintillation counting, vector control subtracted. The following applies: HEK293, L-arginine 100 uM as substrate; for inhibition at 20 µM: read-out: % Inhibition of L-arginine uptake at 20 µM; for inhibition at 200 µM: read-out: % Inhibition of L-arginine uptake at 200 µM. The method in brief:
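HEK-CAT1 and vector-control HEK-VC cells took up [3H]-L-arginine (100 μM) for 5 min, with or without drug at 20 or 200 µM; [3H]-L-homoarginine or [3H]-ADMA uptake ran 2.5 min. Net uptake is CAT1 minus VC cells, and inhibition (%) = 100 − (V/V0 × 100). Negative values mean stimulated uptake.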

The target is the same in assay [3]. Also noted: species or system HEK-CAT1 (HEK293 stably transfected); Inhibition of net CAT1-mediated [3H]-L-homoarginine (1 uM) uptake, 2.5 min, scintillation counting, vector control subtracted. The following applies: HEK293, L-homoarginine 1 uM as substrate; for inhibition at 20 µM: read-out: % Inhibition of L-homoarginine uptake at 20 µM; for inhibition at 200 µM: read-out: % Inhibition of L-homoarginine uptake at 200 µM. The method, boiled down:
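HEK-CAT1 cells with HEK-VC vector controls; [3H]-L-homoarginine (1 μM) uptake over 2.5 min with or without test compound at 20 µM or 200 µM. Net CAT1 uptake (CAT1 minus VC) gives inhibition (%) = 100 – (V/V0 × 100). Negative values mean stimulated uptake; n = 6–9 from at least two independent experiments.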

T1 sequence (P30825 whole entry): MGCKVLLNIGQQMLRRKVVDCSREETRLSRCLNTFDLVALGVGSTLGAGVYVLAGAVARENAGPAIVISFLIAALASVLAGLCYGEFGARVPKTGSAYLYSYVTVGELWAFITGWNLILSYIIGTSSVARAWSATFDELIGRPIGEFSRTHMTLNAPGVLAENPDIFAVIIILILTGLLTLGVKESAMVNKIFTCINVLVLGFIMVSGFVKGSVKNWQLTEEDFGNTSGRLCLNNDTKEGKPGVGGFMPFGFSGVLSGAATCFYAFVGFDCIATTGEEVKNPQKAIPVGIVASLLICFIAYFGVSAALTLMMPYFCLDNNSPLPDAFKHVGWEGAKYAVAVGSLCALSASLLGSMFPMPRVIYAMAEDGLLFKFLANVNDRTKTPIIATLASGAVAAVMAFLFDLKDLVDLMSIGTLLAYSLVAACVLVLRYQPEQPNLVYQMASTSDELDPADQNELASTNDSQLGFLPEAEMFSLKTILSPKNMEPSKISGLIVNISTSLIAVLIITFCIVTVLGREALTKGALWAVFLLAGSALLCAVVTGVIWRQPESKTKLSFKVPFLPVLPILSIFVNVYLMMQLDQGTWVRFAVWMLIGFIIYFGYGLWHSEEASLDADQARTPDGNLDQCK

On to `CC[C@H]1OC(=O)[C@H](C)[C@@H](O[C@H]2C[C@@](C)(OC)[C@@H](O)[C@H](C)O2)[C@H](C)[C@@H](O[C@@H]2O[C@H](C)C[C@H](N(C)C)[C@H]2O)[C@](C)(O)C[C@@H](C)CN(C)[C@H](C)[C@@H](O)[C@]1(C)O` [Azithromycin], for which the inhibition at 20 µM in assay [1] was 2.8 ± 3.4%; in assay [2], 7 ± 7.2%; in assay [3], 20.8 ± 3.3%. For the same compound, the inhibition at 200 µM stood at 12.9 ± 3.7% in assay [1], 16.7 ± 5.2% in assay [2] and 26.8 ± 2.3% in assay [3].
For `COc1ccccc1OCCNCC(O)COc1cccc2[nH]c3ccccc3c12` (stereo not drawn) [Carvedilol], the figures for the inhibition at 20 µM in assay [1], in assay [2] and in assay [3] were -1.1 ± 3.1%, -14.1 ± 1.5% and -11.2 ± 0.9%, respectively. In addition, the inhibition at 200 µM is -7.8 ± 7.1% in assay [1], 0.2 ± 3.5% in assay [2] and -1.4 ± 7.7% in assay [3].
On to `N[C@@H](Cc1ccc(O)c(O)c1)C(=O)O` [Levodopa], for which the inhibition at 20 µM in assay [1] amounted to 28.1 ± 0.9%; in assay [2], 8.1 ± 3.1%; in assay [3], 8.2 ± 3%. In addition, the inhibition at 200 µM was -6 ± 0.5% in assay [1], 31.4 ± 0.6% in assay [2] and 30.4 ± 0.2% in assay [3].
`c1ccc([C@H]2CN3CCSC3=N2)cc1` [Levamisole]: the inhibition at 20 µM in assay [1] was 18.9 ± 12.5%; in assay [2], -18.4 ± 6.9%; in assay [3] it was 19.6 ± 11.8%. Further, the inhibition at 200 µM in assay [1] is -34.3 ± 2.4%; in assay [2], -17.2 ± 5.1%; in assay [3], -15.9 ± 3.8%.
For the compound `CC(C)NCC(O)COc1ccc(COCCOC(C)C)cc1` (stereo not drawn) [Bisoprolol], the inhibition at 20 µM in assay [1] is -2.8 ± 1.6%; in assay [2], -13.1 ± 0.7%; in assay [3] it was -11.1 ± 1.9%. In addition, the figures for the inhibition at 200 µM in assay [1], in assay [2] and in assay [3] were 16.2 ± 4.2%, -17.2 ± 15.5% and -14.9 ± 2.5%, respectively.
Turning to `CC(CN1c2ccccc2Sc2ccccc21)N(C)C` (stereo not drawn) [Promethazine], the results for the inhibition at 20 µM in assay [1], in assay [2] and in assay [3] were 4.2 ± 2%, -1.3 ± 7.1% and 4.3 ± 2%, respectively. Moreover, the inhibition at 200 µM in assay [1] is -9.2 ± 1.2%; in assay [2] it was 14.4 ± 6%; in assay [3] it was 14 ± 0.9%.
Regarding `CCOC(=O)[C@H](CCc1ccccc1)N[C@H]1CCc2ccccc2N(CC(=O)O)C1=O` [Benazepril], the inhibition at 20 µM came to 28.7 ± 4.6% in assay [1], 1.1 ± 4.5% in assay [2] and 1.1 ± 4.5% in assay [3]. Further, the figures for the inhibition at 200 µM in assay [1], in assay [2] and in assay [3] were 3.1 ± 3.8%, 2.7 ± 6% and 5.8 ± 2.4%, respectively.
On to `CCOC(=O)C1=C(C)NC(C)=C(C(=O)OC)C1c1cccc([N+](=O)[O-])c1` (stereo not drawn) [Nitrendipine], for which the inhibition at 20 µM was 3.2 ± 9.5% in assay [1], -1.5 ± 7.1% in assay [2] and 3.4 ± 8.7% in assay [3]. Further, the inhibition at 200 µM amounted to 30.4 ± 0.8% in assay [1], 26.1 ± 8.1% in assay [2] and 15.2 ± 4.5% in assay [3].
As to `CCCN(CCC)S(=O)(=O)c1ccc(C(=O)O)cc1` [Probenecid], the inhibition at 20 µM in assay [1] was -24.9 ± 8.3%; in assay [2], -2.6 ± 3.2%; in assay [3], -2.9 ± 2.8%. Moreover, the inhibition at 200 µM was -17.5 ± 1.8% in assay [1], 0.4 ± 2.1% in assay [2] and -1.1 ± 2.2% in assay [3].
`OCCN1CCN(CCCN2c3ccccc3C=Cc3ccccc32)CC1` [Opipramol]: the inhibition at 20 µM in assay [1] was -13.4 ± 3.7%; in assay [2] it was 22.3 ± 1.8%; in assay [3], -16.8 ± 3.4%. Moreover, the inhibition at 200 µM was -1 ± 4.5% in assay [1], 29.2 ± 2.7% in assay [2] and 29.5 ± 2.7% in assay [3].
`COC(=O)[C@H]1[C@H]2C[C@@H]3c4[nH]c5cc(OC)ccc5c4CCN3C[C@H]2C[C@@H](OC(=O)c2cc(OC)c(OC)c(OC)c2)[C@@H]1OC` [Reserpine]: the inhibition at 20 µM in assay [1] was found to be 9 ± 2.6%; in assay [2], 4.7 ± 7.9%; in assay [3] it was 5 ± 7.5%. Further, the inhibition at 200 µM in assay [1] was 24.2 ± 0.6%; in assay [2], 5.2 ± 2.9%; in assay [3] it was 12.5 ± 1.7%.
Take `CC(C)OC(=O)C(C)(C)Oc1ccc(C(=O)c2ccc(Cl)cc2)cc1` [Fenofibrate]: the inhibition at 20 µM in assay [1] is -4.8 ± 2.1%; in assay [2] it was 16.3 ± 6.6%; in assay [3], 10.1 ± 2.9%. In addition, the inhibition at 200 µM in assay [1] was 0.2 ± 3.2%; in assay [2] it was 13.1 ± 2%; in assay [3], 8.9 ± 0.4%.
Consider `CCOC(=O)C1=C(C)NC(C)=C(C(=O)OC)C1c1cccc(Cl)c1Cl` (stereo not drawn) [Felodipine], for which the inhibition at 20 µM in assay [1] is -7.4 ± 4.4%; in assay [2] it was -2.2 ± 5.9%; in assay [3], -9.6 ± 2.8%. The inhibition at 200 µM in assay [1] was 3.6 ± 2.1%; in assay [2] it was -39.2 ± 1.4%; in assay [3], -18.2 ± 1%.
On to `C[C@]12C=CC(=O)C=C1CC[C@@H]1[C@@H]2C(=O)C[C@@]2(C)[C@H]1CC[C@]2(O)C(=O)CO` [Prednisone], for which the inhibition at 20 µM in assay [1] was -33.3 ± 2.3%; in assay [2] it was 13.9 ± 3.4%; in assay [3], 12.5 ± 2.7%. Further, the inhibition at 200 µM was -16.9 ± 2.24% in assay [1], 19.1 ± 0.8% in assay [2] and 13.2 ± 2.6% in assay [3].
For `CO/N=C(\C(=O)N[C@@H]1C(=O)N2C(C(=O)O)=C(COC(N)=O)CS[C@H]12)c1ccco1` [Cefuroxime], the figures for the inhibition at 20 µM in assay [1], in assay [2] and in assay [3] were -7.1 ± 2.9%, 17.3 ± 3.5% and 16.8 ± 1.6%, respectively. Further, the inhibition at 200 µM in assay [1] is -11.5 ± 2.8%; in assay [2] it was -9.8 ± 8.4%; in assay [3] it was -8.5 ± 5.9%.
Take `COc1ccc([C@@H]2Sc3ccccc3N(CCN(C)C)C(=O)[C@@H]2OC(C)=O)cc1` [Diltiazem]: the results for the inhibition at 20 µM in assay [1], in assay [2] and in assay [3] were 8.5 ± 4.3%, -7.3 ± 7.7% and 8.6 ± 4.3%, respectively. Besides, the inhibition at 200 µM in assay [1] amounted to 9.1 ± 7.7%; in assay [2] it was 29.3 ± 2.5%; in assay [3], 29 ± 2.6%.
In the case of `c1c[nH]cn1` [Imidazole], the inhibition at 20 µM in assay [1] is -4.7 ± 2.1%; in assay [2], -6.3 ± 5.9%; in assay [3], -3.2 ± 2%. Also, the inhibition at 200 µM is 20.7 ± 14.1% in assay [1], -8.5 ± 1.5% in assay [2] and -10.8 ± 1.6% in assay [3].
In the case of `CNCCC(Oc1ccc(C(F)(F)F)cc1)c1ccccc1` (stereo not drawn) [Fluoxetine], the inhibition at 20 µM is -2.4 ± 2% in assay [1], 46.5 ± 8.5% in assay [2] and -4.4 ± 5.2% in assay [3]. For the same compound, the inhibition at 200 µM in assay [1] was -18.8 ± 7.8%; in assay [2], 26 ± 1.5%; in assay [3] it was 25.6 ± 1.2%.
As for `CCc1oc2ccccc2c1C(=O)c1cc(Br)c(O)c(Br)c1` [Benzbromarone], the inhibition at 20 µM is -6.9 ± 4.6% in assay [1], -12.4 ± 6.1% in assay [2] and -10.8 ± 5.3% in assay [3]. In addition, the inhibition at 200 µM in assay [1] was -13.2 ± 5.9%; in assay [2] it was -31.3 ± 4.9%; in assay [3] it was -23.2 ± 1.6%.
For `C[C@@H]1CCC[C@H](C)N1NC(=O)c1ccc(Cl)c(S(N)(=O)=O)c1` [Clopamide], the inhibition at 20 µM in assay [1] was -11.1 ± 2.3%; in assay [2], 4.5 ± 1.9%; in assay [3] it was -14.3 ± 2.1%. Moreover, the inhibition at 200 µM in assay [1] worked out at 11.6 ± 6.5%; in assay [2] it was 23.4 ± 2.5%; in assay [3] it was 14.3 ± 2.2%.
Regarding `C=CC[C@@H]1/C=C(\C)C[C@H](C)C[C@H](OC)[C@H]2O[C@@](O)(C(=O)C(=O)N3CCCC[C@H]3C(=O)O[C@H](/C(C)=C/[C@@H]3CC[C@@H](O)[C@H](OC)C3)[C@H](C)[C@@H](O)CC1=O)[C@H](C)C[C@@H]2OC` [Tacrolimus], the figures for the inhibition at 20 µM in assay [1], in assay [2] and in assay [3] were -14.2 ± 1.2%, 28.5 ± 3.7% and -10.3 ± 3.6%, respectively. Besides, the values for the inhibition at 200 µM in assay [1], in assay [2] and in assay [3] were -11.8 ± 2.4%, 69.6 ± 4.8% and 13.4 ± 1.1%, respectively.
For `Nc1nc(N)c2nc(-c3ccccc3)c(N)nc2n1` [Triamterene], the inhibition at 20 µM in assay [1] was 12.6 ± 3.2%; in assay [2], 5.1 ± 8.8%; in assay [3] it was 10.7 ± 2.1%. Moreover, the inhibition at 200 µM in assay [1] was -10.6 ± 0.6%; in assay [2] it was 16.7 ± 1.6%; in assay [3], 14.1 ± 0.5%.
